Test results published in patent US5688830A, “Treatment of neuropathic pain” (Syntex (U.S.A.) Inc., priority 1997, dated 1997).
Read-outs that look alike come from different tables or passages of the source.

Tests used:
[1] = Adverse effects / gross behavior on dosing; type: in vivo, rat
Protocol: The doses for the acute and chronic studies were selected on the basis of prior assessment of the acute effects on the test compounds on the gross behavior in normal rats. Briefly, the rats were weighed and grouped into cages, dosed with the test compound, and observed continuously for changes in behavior. […] Pinna and corneal reflexes were tested by using a piece of natural hair from a brush that is attached to a glass rod. The righting reflexes were tested by placing the rat flat on its back, and recording the time it takes for the animal to right itself onto all four legs. The posture and gait were assessed by placing the rat on the floor.
The selection of doses was similar to that of Example 12C.

cold allodynia in rats = assay: Cold allodynia in vivo assay (chronic constriction injury), acute studies; design: species or system rat; conditions: subcutaneous; for ED50: Rattus norvegicus, sc
Protocol: This assay determines the effectiveness of compounds in relieving one of the symptoms of neuropathic pain produced by unilateral mononeuropathy, namely cold allodynia. Unilateral mononeuropathy was produced in rats using the Chronic Constriction Injury model performed essentially as described by Bennet and Xie, Pain, (1988) 33:87-107. Briefly, the rats were anesthetized with an intraperitoneal dose of pentobarbital sodium (65 mg/kg) with additional doses of anesthetic given as needed. The lateral aspect of each rat's hind limb was shaved and scrubbed with Novasan. Using aseptic technique, an incision was made on the lateral aspect of the hind limb at the mid-thigh level. The biceps femoris was bluntly dissected to expose the sciatic nerve. On the right hind limb of each rat, four loosely tied ligatures were made around the sciatic nerve approximately 1-2 millimeters apart. On the left side of each rat, an identical dissection was performed except that the sciatic nerve was not ligated. The muscle was closed with a continuous suture pattern, and the skin was closed with wound clips. Each rat was placed individually into a plexiglass chamber with a metal plate 6 cm from the bottom. This chamber was filled with ice water to a depth of 2.5 cm above the metal plate, with the temperature of the bath maintained at 0° C. throughout the experiment. A timer was started, and the rat's response latency was measured to the nearest tenth of a second. A "response" was defined as a rapid withdrawal of the right ligated hindpaw completely out of the water while the animal was stationary and not pivoting. An exaggerated limp while the animal was walking was not scored as a response. Maximum immersion time was 20 seconds with a 20 minute interval between trials. The screening criteria were 1) the average of two trials was less than or equal to 13 seconds, and 2) there was consistency across the two trial scores. Animals were screened for hypersensitivity to cold on post-surgery days 4 through 10, and selected for inclusion in dose-response studies based on the criteria described above. The pre-dose screening values were used as the animal's baseline cold allodynia scores. For acute studies, the animals received either subcutaneous or oral injections and were tested for cold allodynia at 1, 3, and sometimes 5 hours post-dose. The selection of doses was similar to that of Example 12C.

[2] = system: rat brain type IIA sodium channel; assay: [14C]Guanidinium ion influx assay, rat brain type IIA sodium channel in CHO cells; type: cell-based
Protocol: (§1) Chinese hamster ovary cells stably expressing the rat brain type IIA sodium channel subunit were maintained in RPMI 1640 with 10% fetal bovine serum and […] G-418. Chinese hamster lung cells stably expressing the human heart (hH1a) sodium channel subunit were maintained in DMEM with 5% fetal bovine serum and 300 μg/ml G-418. Both cells were subcultured and grown to confluence in 24-well plates 2-3 days before each experiment. After the growth medium was removed, the cells were washed with warm buffer (25 mM Hepes-Tris, 135 mM choline chloride, 5.4 mM potassium chloride, 0.98 mM magnesium sulfate, 5.5 mM glucose, and 1 mg/ml BSA, pH 7.4) and incubated in buffer on a 36° C. slide warmer for approximately 10 minutes. Various concentrations of the test compounds or standard sodium channel blockers (10 μl) and then veratridine (100 μM) were added to each well. After the cells were exposed to veratridine for 5 minutes, 5 μM of [^14 C]guanidinium was added, incubated with the radioligand, washed with 4 ml of ice-cold buffer, and dissolved in 0.1N sodium hydroxide. The radioactivity and the protein concentration of each cell lysate were determined by liquid scintillation counting and the protein assay using Pierce BCA reagent.

[3] = system: human heart (hH1a) sodium channel; assay: [14C]Guanidinium ion influx assay, human heart (hH1a) sodium channel in Chinese hamster lung cells; type: cell-based
Protocol: as §1

[4] = system: voltage-gated sodium channels ([3H]BTX binding, rat heart); assay: [3H]BTX binding assay, rat heart membranes
Protocol: (§2) The following assays characterize the interaction of the compounds of Formula I with ligand binding sites on voltage-gated sodium channels.
(§3) Frozen tissues were obtained from Pel-Freez Biologicals (Rogers, AR). Tissues were homogenized in 10 volumes of a Tris-sucrose buffer (10 mM Tris-HCl, 250 mM sucrose, pH 7.4 at 4° C.) using 10 strokes with a glass-glass, hand-held homogenizer. The homogenates were filtered through nylon mesh and then centrifuged at 1,000×g for 15 minutes. The pellets were resuspended in a Hepes buffer (50 mM Hepes, 130 mM choline chloride, 5 mM glucose, 5.4 mM KCl, pH 7.4 at 4° C.). The resuspended pellets were centrifuged at 1,000×g for 15 minutes, resuspended in a Hepes buffer (50 mM Hepes, 130 mM choline chloride, 5 mM glucose, 5.4 mM KCl, pH 7.4 at 25° C.) and, frozen at -70° C. until used in binding assays.
(§4) Cell membranes prepared as in Example 10A above were incubated with 16 nM [^3 H]BTX in 250 μl of Hepes buffer (50 mM Hepes, 130 mM choline chloride, 5 mM glucose, 5.4 mM KCl, pH 7.4 at 25° C.). Nonspecific binding was defined in the presence of 1 mM veratridine. Unless otherwise specified, PbTx (0.1 μM) and LqTx (50 μg/ml) were included in the assays. […] Filters were rinsed with 3×1 ml of ice cold 50 mM Tris-HCl (pH 7.4 at 4° C.) and the bound radioactivity was determined by scintillation counting (Packard Top-count).

[5] = system: local anesthetic site of the sodium channel in rat brain cortex membranes; assay: [3H]PD85639 binding assay
Protocol: as §2, §3
Membranes as prepared in Example 10A above were incubated with 3 nM [^3 H]PD 85639 in 250 μl of Hepes buffer (50 mM Hepes, 130 mM choline chloride, 5 mM glucose, 5.4 mM KCl, pH 7.4 at 25° C. with Tris base). Nonspecific binding was defined in the presence of 0.1 mM PD85639. […] Filters were rinsed with 3×1 ml of ice cold 50 mM Tris-HCl (pH 7.4 at 4° C.) and the bound radioactivity was determined by scintillation counting (Packard Top-count).

[6] = system: voltage-gated sodium channels ([3H]BTX binding, rat dorsal root ganglion); assay: [3H]BTX binding assay, rat dorsal root ganglion membranes
Protocol: as §2, §3, §4

[7] = subcutaneous, cold allodynia acute study
[8] = cold allodynia, acute, 1 hr, read-out: ED50 1 hr
[9] = cold allodynia, acute, in words

Structure (SMILES): CCN[C@H](C)COc1c(C)cccc1C [Formula I (R)-, (R)-[2-(2,6-dimethylphenoxy)-1-methylethyl]-ethylamine]
- doses with adverse side effects ([1]; oral administration, mechanical allodynia study): ≥ 300 mg/kg
- safety profile ([1]; oral administration, vs (S)-enantiomer): cleaner safety profile
- doses with adverse side effects / behavioral problems [1, 7]: ≥ 300 mg/kg
- safety profile ([1]; subcutaneous, cold allodynia acute study, vs racemate, (S)-enantiomer, or II): cleaner safety profile
- ED50 (cold allodynia in rats; [8]): 37 mg/kg
- ED50 (cold allodynia in rats; cold allodynia, acute, 3 hr, read-out: ED50 3 hr): 23.4 mg/kg
- Emax 1 hr (cold allodynia in rats; cold allodynia, acute, 1 hr): 91%
- Emax 3 hr (cold allodynia in rats; cold allodynia, acute, 3 hr): 87%
- duration of action in vivo compared with racemate, (S)-enantiomer, or II (cold allodynia in rats; [9]): longer duration of action
- maximal analgesic activity (Emax) compared with III or IV (cold allodynia in rats; [9]): significantly greater maximal analgesic activity
- maximal analgesic activity compared with racemate, (S)-enantiomer, or II (cold allodynia in rats; [9]): greater maximal analgesic activity
- potency (ED50) comparison of (R)-isomers (cold allodynia in rats; [9]): comparable potency

Structure (SMILES): CCNC(C)COc1c(C)cccc1C (racemic) [Formula I racemate, [2-(2,6-dimethylphenoxy)-1-methylethyl]-ethylamine]
- inhibition of veratridine-stimulated [14C]Guanidinium ion influx [2]: inhibited
- doses with adverse side effects / behavioral problems [1, 7]: higher than 60 mg/kg
- adverse side effects observed ([1]; subcutaneous, cold allodynia acute study, doses higher than 60 mg/kg): convulsions and immobility
- inhibition of veratridine-stimulated [14C]Guanidinium ion influx [3]: inhibited
- inhibition of [3H]BTX binding [4]: inhibited
- inhibition of [3H]PD85639 binding to the local anesthetic site [5]: inhibited
- inhibition of [3H]BTX binding [6]: inhibited
- ED50 (cold allodynia in rats; [8]): 15.7 mg/kg
- Emax 1 hr (cold allodynia in rats; cold allodynia, acute, 1 hr): 82%
- anti-allodynic effect, acute dosing (cold allodynia in rats; 5 mg/kg, 1, 3 or 5 hours post-dose): no significant anti-allodynic effects
